# Columns and labels:
# [1] = tested on: immobilized human corneal endothelial cells (iFECD); experiment: Mitochondrial membrane potential, JC-1 stain, confocal microscope; format: cell-based; conditions: CCCP 50 μmol/L, 9 hours, uncoupling agent
# Protocol: (§1) The medium was removed from a culture dish in which immobilized human corneal endothelial cells were being cultured, and the cells were supplemented with 1×PBS (−) that was preheated to 37° C., and were washed. This was repeated twice. The cells were supplemented again with 1×PBS (−) and incubated for 5 minutes at 37° C. (5% CO2). After removing the PBS (−), the cells were supplemented with 0.05% Trypsin-EDTA (Nacalai Tesque, 35554-64) and incubated for 5 minutes at 37° C. (5% CO2). The cells were then suspended in a medium, and collected by centrifugation at 1500 rpm for 3 minutes. DMEM (Nacalai Tesque, 08456-94)+10% FBS (Biowest, S1820-500)+1% P/S (Nacalai Tesque, 26252-94) was used as the medium.
# Immobilized human corneal endothelial cells (lot: iFECD3-5) were seeded on a 48-well plate at a ratio of 4×10^4 cells per well and cultured for 48 hours at 37° C. (5% CO2). DMEM+10% FBS+1% P/S was used as the medium.
# After 48 hours, the medium was removed. Each inhibitor was added to culture the cells for 24 hours (pretreatment). DMSO (Dimethyl Sulfoxide Sterile-filtered) (Nacalai Tesque, 13408-64) was added to the control group and the TGF-β2 group. The CCCP group was supplemented with CCCP (abcam, ab141229), so that the final concentration was 50 μmol/L, and cultured for 9 hours. […]
# Mitochondrial membrane potential was analyzed by the following procedure with a JC-1 stain. […]
# [2] = tested on: immobilized human corneal endothelial cells (iFECD); experiment: Mitochondrial membrane potential decreased cells, JC-1 flow cytometry; format: cell-based; conditions: TGF-β2 10 ng/ml 30 hours, SB203580 10 μM, PH-797804 1 μM, VX-702 3 μM, compared to the TGF-β2 group or SB431542 10 μM group
# Protocol: as §1, with “C. (5% C02). After removing” for “C. (5% CO2). After removing”
# (§2) Immobilized human corneal endothelial cells (lot: iFECD3-5) were seeded on a 12-well plate at a ratio of 8×10^4 cells per well and cultured for 48 hours at 37° C. (5% CO2). DMEM+10% FBS+1% P/S was used as the medium.
# After 48 hours, the medium was removed. Each inhibitor was added to culture the cells for 24 hours (pretreatment). DMSO (Dimethyl Sulfoxide Sterile-filtered) (Nacalai Tesque, 13408-64) was added to the control group and the TGF-β2 group. DMEM+2% FBS+1% P/S was used as the medium. […]
# The samples prepared above were analyzed using BD Accuri C6 Flow Cytometer (BD).
# [3] = tested on: Human corneal endothelial cells; experiment: Cell count 24 hours after thawing cryopreserved cells, CellTiter-Glo; format: cell-based; conditions: SB203580 10 μM, 24 hours after seeding thawed cells
# Protocol: After thawing the cryopreserved cells by adding only DMSO, 10000 cells were seeded in a 96-well plate that was coated with laminin E8. SB203580 (Cayman, catalog number: 13067) was added so that the final concentration was 10 μM upon seeding. DMSO was added to the group to which SB203580 was not added. After 24 hours from seeding, CellTiter-Glo Luminescent Cell Viability Assay (Promega catalog number: G7570) was performed to measure luminescence.
# [4] = tested on: Human corneal endothelial cells; experiment: Cryopreservation of corneal endothelial cells, trypan blue dye exclusion test; format: cell-based; conditions: SB203580 10 μM in KM BANKER, 3 days at −80° C.
# Protocol: Human corneal endothelial cells cultured in an MSC-CM (MSC cultured medium) were used in the test. The medium was removed from a culture dish in which human corneal endothelial cells were being cultured, and the cells were supplemented with PBS (−) that was preheated to 37° C., and were washed. This was repeated twice. After removing the PBS (−), the cells were supplemented with TrypLE Select (×10) (GIBCO, A12177-01) and incubated for 10 minutes at 37° C. (5% CO2). SB203580 was added to KM BANKER, so that the final concentration was 10 μM. The control group was cryopreserved by supplementing a reagent solvent, dimethyl sulfoxide (DMSO) (Dimethyl Sulfoxide Sterile-filtered; Nacalai Tesque, 13408-64). After 3 days of storage at −80° C., the tube was thawed by being immersed in a 37° C. water bath. After thawing, the sample was washed in a medium. Live and dead cell counts were measured by trypan blue dye exclusion test.
# [5] = cited from earlier work
# [6] = tested on: immobilized human corneal endothelial cells (iFECD); experiment: Cell damage by TGF-β2 stimulation, phase differential microscope; format: cell-based; conditions: 24 h pretreatment, TGF-β2 10 ng/ml 27 hours, SB203580 10 μM, PH-797804 1 μM, VX-702 3 μM, SB431542 10 μM
# Protocol: as §1, with “P/S (penicillin-streptomycin mixture)” for “P/S”
# as §2
# After 48 hours, the medium was removed. Each inhibitor was added to culture the cells for 24 hours. DMSO (Dimethyl Sulfoxide Sterile-filtered) (Nacalai Tesque, 13408-64) was added to the control group and the TGF-52 group. DMEM+2% FBS+1% P/S was used as the medium.
# After 24 hours, the medium was removed. A medium containing 10 ng/ml of Recombinant Human TGF-β2 (R&D systems, RND302-B2-002) and each inhibitor was added to culture the cells for 27 hours. […]
# smad2 and smad3 = experiment: Western blot of phospho-smad2 and smad3 after TGF-β2 stimulation; format: cell-based, human; conditions: iFECD, TGF-β2 10 ng/ml 24 hours; SB431542 10 μM, SB203580 10 μM, PH-797804 1 μM, VX-702 3 μM
# From the text: The same procedure as Example 4 was used. However, rabbit anti-Phospho-Smad2 antibody: 1000-fold dilution, rabbit anti-Phospho-Smad3 antibody: 1000-fold dilution, and mouse anti-GAPDH antibody: 3000-fold dilution were used as the primary antibodies.
smiles,measurement,setting,value
N#CC(C#N)=NNc1cccc(Cl)c1 [CCCP],mitochondrial membrane potential (JC-1 red fluorescence),[1],not observed
"CNC(=O)c1ccc(C)c(-n2c(C)cc(OCc3ccc(F)cc3F)c(Br)c2=O)c1 [PH-797804, 3-[3-bromo-4-[(2,4-difluorophenyl)methoxy]-6-methyl-2-oxopyridin-1-yl]-N,4-dimethylbenzamide]",percentage of mitochondrial membrane potential decreased cells,[2],comparable to or lower than the SB431542 added group
"C[S+]([O-])c1ccc(-c2nc(-c3ccncc3)c(-c3ccc(F)cc3)[nH]2)cc1 (stereo not drawn) [SB203580, 4-(4-fluorophenyl)-2-(4-methylsulfinylphenyl)-5-(4-pyridyl)-1H-imidazole]",cell count compared to the DMSO-added group,[3],about 1.3 fold
same,cell viability immediately after thawing compared to DMSO,[4],slightly higher
same,solubility into methanol,[5]; methanol,soluble
same,solubility into water,[5]; water,difficult to dissolve
same,percentage of mitochondrial membrane potential decreased cells,[2],comparable to or lower than the SB431542 added group
NC(=O)c1ccc(-c2nc(-c3ccc4c(c3)OCO4)c(-c3ccccn3)[nH]2)cc1 [SB431542],damage to corneal endothelial cells due to TGF-β2 stimulation,[6],suppressed
same,smad2 and smad3 (downstream of TGF-β signaling pathway) in western blot,smad2 and smad3,not found

# Reference: patent US10980787B2, “Drug for treating or preventing disorder caused by TGF-B signals, and application thereof” (THE DOSHISHA, priority 2015, dated 2021)
